Source: patent US8747888B2, “Dermal delivery device with in situ seal” (Agile Therapeutics, Inc., priority 2007, dated 2014)

Assay: Control of loss of volatile components: amounts in the AI patch after storage, by gas chromatography
Assay type: physicochemical
Settings: 12 wks, device with in situ seal
Method: A transdermal hormone delivery device was prepared comprising an internal backing layer, an AI layer, and a release liner. […] The device also comprised an overlay comprising a polyurethane […] backing, which is able to absorb large amounts of the volatile excipients, DMSO and ethyl lactate, an acrylic PSA coated onto the polyurethane foam, and a PIB PSA coated on top of the acrylic PSA. […] The release liner was a Mylar polyester film coated with a fluoropolymer release coating. […] The devices were placed in a 25° C. or 40° C. oven. After 6 weeks and 12 weeks, devices were removed from the oven and the active section of each device was separated from the overlay. […] (12 weeks exposure to 40° C. is intended to simulate 18 months exposure to room temperature (25° C.)).

Compound: CCCCCCCCCCCCOC(=O)C(C)O (centres unmarked) [Lauryl Lactate, lauryl lactate]
- Amount in the AI patch (40° C.): 9.20 wt %
- Amount in the AI patch (room temp): 9.10 wt %
